These results are taken from US4659741A, “β-[2-(halogenobenzyl)-phenoxy]-ethylamine derivatives” (Institut de Recherches Chimiques et Biologiques Appliquees …, priority 1983, dated 1987).

Where only a bound is given, the exact number is not on record here.

Data set [1] relates to Gram+ bacteriae. The settings on record: infectious diseases caused by Gram+ bacteriae; cited from earlier work.
The conditions of data set [2]: cited from earlier work.
For data set [3], the system named is Staphylococcus aureus London CIP A.238. Description: Minimal inhibiting concentration (MIC), Gram+ strain (Table IV). The settings on record: Staphylococcus aureus. It counts as cell-based. From the text:
(§1) A certain number of compounds according to the invention are given non-restrictively by way of illustration in tables I, II and III hereinafter. The minimal inhibiting concentrations (MIC) of these compounds vis-a-vis a Gram+bacteria (Staphylococcus aureus London) a Gram-bacteria (Escherichia coli) and a fungus (Candida albicans) are given hereinafter in table IV. In table V are tabulated the MIC values of two compounds according to the invention which are particularly interesting [compound B 673 (example 26) and compound B 674 (example 29)] vis-a-vis several strains.
(§2) The strains used are those of the catalogues of the "Institut Pasteur" of Paris (abbreviation: CIP), the "Centre International de Distribution de Souches et d'Information sur les Types Microbiens de Lausanne" (abbreviation: La) and the "American Type Culture Collection" (abbreviation: ATCC).
G^+ = Gram^+ strain: Staphylococcus aureus London CIP A.238

The subject of data set [4] is Escherichia coli CIP 54.8. The data set can be described thus: Minimal inhibiting concentration (MIC), Gram- strain (Table IV). It counts as cell-based. The settings on record: CIP54.
Excerpt: as §1, §2
G^- = Gram^- strain: Escherichia coli CIP 54.8

Data set [5] deals with Candida albicans CIP 1180. Description: Minimal inhibiting concentration (MIC), fungus strain (Table IV). The following applies: Candida albicans, CIP1180, Candida albicans CIP 1180. It counts as cell-based.
Excerpt: as §1, §2
C = fungus strain: Candida albicans CIP 1180

Data set [6] has as its system Bacillus subtilis ATCC 6633. The data set can be described thus: MIC vis-a-vis several strains (Table V). It counts as cell-based. The settings on record: ATCC6633.
Excerpt: as §1, §2

The test system of data set [7] is Branhamella catarrhalis la 987. The data set can be described thus: MIC vis-a-vis several strains (Table V). It counts as cell-based. The settings on record: Moraxella catarrhalis, LA987.
Excerpt: as §1, §2

The subject of data set [8] is Corynebacterium diphteriae CIP A.102. The data set can be described thus: MIC vis-a-vis several strains (Table V). It counts as cell-based. The settings on record: CIPA.102.
Excerpt: as §1, §2

The subject of data set [9] is Diplococcus pneumoniae la 209. Description: MIC vis-a-vis several strains (Table V). It counts as cell-based. The following applies: Streptococcus pneumoniae, LA209.
Excerpt: as §1, §2

Data set [10] has as its system Haemophilus influenzae CIP 5293. Description: MIC vis-a-vis several strains (Table V). It counts as cell-based. The following applies: CIP5293.
Excerpt: as §1, §2

In data set [11] the test system is Klebsiella pneumoniae la 433. Description: MIC vis-a-vis several strains (Table V). It counts as cell-based. The following applies: LA433.
Excerpt: as §1, §2

Data set [12] has as its system Listeria monocytogenes CIP 54153. The data set can be described thus: MIC vis-a-vis several strains (Table V). It counts as cell-based. The settings on record: CIP54153.
Excerpt: as §1, §2

Data set [13] concerns Neisseria gonorrhoeae CIP A.52. Description: MIC vis-a-vis several strains (Table V). It counts as cell-based. The settings on record: CIPA.52.
Excerpt: as §1, §2

The test system of data set [14] is Neisseria meningitidis CIP 7310. The data set can be described thus: MIC vis-a-vis several strains (Table V). The following applies: CIP7310. It counts as cell-based.
Excerpt: as §1, §2

Data set [15] relates to Staphylococcus aureus ATCC 6538 P. Description: MIC vis-a-vis several strains (Table V). It counts as cell-based. The following applies: ATCC6538.
Excerpt: as §1, §2

Data set [16] relates to Streptococcus faecalis CIP 53.152. Description: MIC vis-a-vis several strains (Table V). It counts as cell-based. The following applies: Enterococcus faecalis, CIP53.
Excerpt: as §1, §2

For data set [17], the system named is Streptococcus pyogenes CIP 56.42. The data set can be described thus: MIC vis-a-vis several strains (Table V). The following applies: CIP56. It counts as cell-based.
Excerpt: as §1, §2

Data set [18] concerns Streptococcus pyogenes CIP 5641. The data set can be described thus: MIC vis-a-vis several strains (Table V). It counts as cell-based. The settings on record: CIP5641.
Excerpt: as §1, §2

Data set [19] deals with Streptococcus pyogenes CIP A.241. The data set can be described thus: MIC vis-a-vis several strains (Table V). It counts as cell-based. The following applies: CIPA.241.
Excerpt: as §1, §2

The subject of data set [20] is Streptococcus pyogenes la 147. Description: MIC vis-a-vis several strains (Table V). The following applies: LA147. It counts as cell-based.
Excerpt: as §1, §2

Data set [21] in a line: Toxicity, LD-50 mice (Table VI). The following applies: mouse, in vivo.

As for `CC(C)(C)CC(C)(C)c1ccc(O)c(Cc2ccc(Cl)cc2Cl)c1` [B.11, 2-(2,4-dichlorobenzyl)-4-(1,1,3,3-tetramethylbutyl)-phenol], in [1], the “effectiveness in the treatment of infectious diseases” value is “particularly effective in the treatment of infectious diseases caused by Gram+ bacteriae”. The “water solubility / dispersibility” value in data set [2] was “not naturally water soluble nor water dispersible”.
For the compound `CC[N+](CC)(CCOc1ccc(C)cc1Cc1ccc(Cl)cc1Cl)Cc1ccccc1` [Example 26], the MIC in data set [3] came to 0.25 µg/mL; in [4], 32 µg/mL; in data set [5] it was 4 µg/mL; in data set [6], 1.56 µg/mL; in data set [7] it was 0.78 µg/mL; in data set [8], 25 µg/mL. The MIC is 1.56 µg/mL in data set [9]; 0.78 µg/mL in data set [10]; 25 µg/mL in [11]; 1.56 µg/mL in [12]; 0.78 µg/mL in data set [13]; 0.78 µg/mL in [14]. Further, the MIC in data set [15] is 0.78 µg/mL; in [16], 3.12 µg/mL; in data set [17], 0.78 µg/mL; in data set [18] it was 0.78 µg/mL; in data set [19] it was 0.78 µg/mL; in data set [20], 0.78 µg/mL. In addition, the LD50 in data set [21] was over 1000 mg/kg.
`CC[N+](CC)(CCOc1ccc(C(C)(C)C)cc1Cc1ccc(Cl)cc1Cl)Cc1ccccc1` [Example 29, N,N-diethyl-N-{2-[2-(2,4-dichlorobenzyl)-tertiobutylphenoxy]-ethyl}-N-benzylammonium chloride]: the MIC in [3] turned out to be 0.015 µg/mL; in data set [4], 4 µg/mL; in data set [5], 0.125 µg/mL; in [6], 0.78 µg/mL; in [7], 0.78 µg/mL; in data set [8], 3.12 µg/mL. Besides, the MIC amounted to 0.78 µg/mL in data set [9]; 0.78 µg/mL in data set [10]; 6.25 µg/mL in data set [11]; 0.78 µg/mL in data set [12]; 0.78 µg/mL in [13]; 0.78 µg/mL in data set [14]. Besides, the MIC in data set [15], in [16], in data set [17], in [18], in data set [19] and in [20] was 0.78 µg/mL in each case. This compound registered an LD50 in data set [21] of over 1000 mg/kg.

A word on the LD50: it is the dose at which mortality reaches 50%. Read a low LD50 as greater toxicity.
